Columns and labels:
[1] = test system: Jurkat cells; test: lactate excretion by Jurkat cells (enzymatic L-lactic acid kit); assay type: cell-based, human; conditions: preliminary test, 100 µM inhibitor, followed for 48 hours, versus DMSO control
Experimental: The cells were incubated in 1 mL volume (24 well plates) at 5% CO2 and 37°C. The inhibitors were added in 100 µM concentration. As a control, equivalent amount of DMSO as used for the addition of inhibitors was supplemented to the medium. The tests started with 1×10^5 cells per mL. Extracellular lactate excreted by the Jurkat cells was measured in the supernatant of the growth medium after the cells were removed by centrifugation at 1500 rpm for 5 minutes. Lactate concentration was determined enzymatically using L-Lactatic acid kit (K-LATE, Megazyme, Ireland).
Measurements of lactate excretion in the tumorigenic Jurkat cells and the cells treated with two selected inhibitors at different concentrations were repeated by more detailed measurements. The growth conditions were identical to those described in Experiment 2. No significant difference in lactate excretion could be observed by the treated and untreated cells during the initial stage of growth that lasted for approximately 12 hours. Later on lactate excretion by the Jurkat cells ceased in the presence of both inhibitors.

[2] = target: T1, modified (47 kDa) 6-phosphofructo-1-kinase (PFK-M), sfPFK-M fragments (Homo sapiens, UniProt P08237); test: in vitro inhibition of purified recombinant modified (cancer-specific) PFK-M fragments; conditions: native and modified PFK-M not distinguished
T1 sequence (P08237 1-443 limits assumed): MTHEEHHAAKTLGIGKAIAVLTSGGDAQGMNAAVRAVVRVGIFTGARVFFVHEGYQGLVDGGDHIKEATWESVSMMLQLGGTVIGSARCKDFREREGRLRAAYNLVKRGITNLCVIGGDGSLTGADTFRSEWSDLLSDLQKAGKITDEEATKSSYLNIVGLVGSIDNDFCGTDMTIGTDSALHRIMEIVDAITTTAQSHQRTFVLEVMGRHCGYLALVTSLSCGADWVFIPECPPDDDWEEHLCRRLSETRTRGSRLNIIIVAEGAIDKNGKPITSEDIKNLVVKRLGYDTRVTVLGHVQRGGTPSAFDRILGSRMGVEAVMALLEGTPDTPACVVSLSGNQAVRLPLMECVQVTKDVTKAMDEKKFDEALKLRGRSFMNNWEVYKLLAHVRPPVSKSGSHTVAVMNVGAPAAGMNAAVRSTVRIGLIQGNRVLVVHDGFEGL
Experimental: Initially, all compounds were tested in vitro for inhibition of the purified human native enzyme (85 kDa) and modified cancer-specific shorter fragments (47 kDa) of muscle type PFK-M, followed by measurements of the purified native enzyme (85 kDa) and shorter fragments (70 kDa) of liver type PFK-L isoform.
Selected compounds were tested for in vitro inhibition of isolated recombinant human native and modified PFK-M enzymes.
The yeast transformant encoding the native human PFK-M enzyme was designated as nPFKM strain while transformant encoding cancer specific shorter fragments was designated as sfPFKM strain. […] For the enzymatic measurements, all the substrates (F6P and ATP), auxiliary enzymes, NADH and inhibitors dissolved in DMSO were added first to the buffer with PEG. After thorough mixing of the buffer with all ingredients, the enzymatic reaction started by the insertion of the purified recombinant enzymes.

[3] = test system: MDA-MB-231 cells; test: lactate excretion by MDA-MB-231 cells; assay type: cell-based; conditions: single addition; for lactate excretion by MDA-MB-231 cells: different concentrations
Experimental: (§1) Preliminary in vivo tests were run by measuring lactate production by three different tumorigenic cell lines. Again, 100 µM concentrations of tested compounds have been added to the medium. For the experiment, the following tumorigenic cells lines originating from different tumours were tested: Caco-2 cells (Figure 10a), originating from colorectal adenoma carcinoma; COLO 829 cells (Figure 10b), isolated from melanoma; and MDA-MB-231 cells (Figure 10c) derived from metastatic phase of mammary/breast cancer. All adherent cell lines were grown in the RPMI 1640 GlutaMAX substrate (Thermo Fisher) supplemented with 10% FBS.
Inhibitors No. 23, 29, 30 and 31 were tested for preventing lactate generation by the MDA-MB-231 cells. […] No significant discrepancies of total cell numbers were observed (Figure 14e) due to the different concentrations of inhibitors in the medium. […] The average percent of dead MDA-MB-231 cells in the control and in the presence of different concentrations of inhibitors were as follows: inh. 23 (2,98±0,2%), inh. 29 (3,37±0,39%), inh. 30 (3,4±0,21%), inh. 31 (6,87±0,44%). Additionally, cytotoxicity of inh. 3 (7,2±0,47%) and 9 (6,59±0,29%) for MDA-MB-231 cells were also determined. No dose dependent decrease of survival was observed by any inhibitor.
(§2) A decrease in inhibitory effectiveness of some compounds was observed after certain period of time (Example 11). […] Therefore, the influence of selected inhibitors was assessed by sequential re-insertion of low concentrations of inhibitors at indicated time points. The inhibitors were first added to the medium 8 hours after the inoculation followed by periodically additions at 24-hour intervals (marked by arrows).
In MDA-MB-231 calls similar results to those found in Caco-2 cells were observed. […] No significant cytostatic (Figure 17f) or cytotoxic effect of inhibitors could be detected after 92 hours of incubation despite of sequential addition of various concentrations of inhibitors. The following average percentages of dead cells were perceived in the medium without and with inh. 3 (2,05±0,18%), inh. 9 (1,85±0,05%), inh. 23 (2,20±0,15%), inh. 29 (1,54±0,16%) and inh. 30 (2,00±0,18%). No detrimental effects of increased inhibitors concentrations on cell deaths have been observed.

[4] = test system: Caco-2 cells; test: lactate excretion by Caco-2 cells; assay type: cell-based; conditions: single addition
Experimental: as §1, with “Again, 100 µM concentrations of tested compounds have been added to the medium.” left out, “cancer.” for “cancer. All adherent cell lines were grown in the RPMI 1640 GlutaMAX substrate (Thermo Fisher) supplemented with 10% FBS.”
(§3) Lactate generation, growth yield and survival under normal and inhibitory conditions of three different tumorigenic cells lines were determined in more detailed measurements. […] Cytotoxicity was measured by the Lactate dehydrogenase (LDH) kit (Roche).
Therefore, the influence of selected inhibitors was assessed by sequential re-insertion of low concentrations of inhibitors at indicated time points. The inhibitors were first added to the medium 8 hours after the inoculation followed by periodically additions at 24-hour intervals (marked by arrows).

[5] = test system: COLO 829 cells; test: lactate excretion by COLO 829 cells; assay type: cell-based; conditions: for lactate excretion by COLO 829 cells: single addition, different concentrations
Experimental: as §1
On the basis of preliminary results, inhibitors No. 23, 29, 30 and 31 were tested on COLO 829 cells. […] No significant discrepancies of total cell numbers in respect to the control were observed due to the different concentrations of inhibitors in the medium (Figure 13e). The average percent of dead COLO 829 cells in the control and in the presence of different concentrations of inhibitors were as follows: inh. 23 (9,23±0,6%), inh. 29 (9,31±0,73%), inh. 30 (8,27±0,49%), inh. 31 (8,26±0,38%). Additionally, cytotoxicity of inh. 3 (5,01±1,08%) and 9 (3,65±0,78%) for COLO 829 cells were also determined. No dose dependent decrease of survival was observed by any inhibitor.
as §2
No significant cytostatic (Figure 16f) of cytotoxic effect of inhibitors could be detected after 92 hours of incubation despite of sequential addition of various concentrations of inhibitors. The following average percentages of dead cells were perceived in the medium without and media with inh. 3 (1,95±0,15%) inh. 9 (1,70±0,14%), inh. 23 (2,40±0,09%), inh. 29 (1,66±0,25%) and inh. 30 (1,38±0,18%). No detrimental effects of increased inhibitors concentrations on cell deaths have been observed.

[6] = test system: Caco-2 cells; test: cytotoxicity in Caco-2 cells (lactate dehydrogenase (LDH) kit); assay type: cell-based
Experimental: as §3

[7] = test system: COLO 829 cells; test: cytotoxicity in COLO 829 cells (LDH kit); assay type: cell-based; conditions: for average percent of dead COLO 829 cells: single addition, average over control and different concentrations of inhibitor
Experimental: as §3

[8] = test system: MDA-MB-231 cells; test: cytotoxicity in MDA-MB-231 cells (LDH kit); assay type: cell-based; conditions: for average percent of dead MDA-MB-231 cells: single addition, average over control and different concentrations of inhibitor
Experimental: as §3
Inhibitors No. 23, 29, 30 and 31 were tested for preventing lactate generation by the MDA-MB-231 cells.

[9] = sequential addition at 24-hour intervals, 92 hours, average over medium without and with inhibitor

Structure (SMILES) | lactate excretion by the Jurkat cells [1] | in vitro PFK-M inhibition [2] | lactate excretion by MDA-MB-231 cells [3] | lactate excretion by COLO 829 cells [5] | average percent of dead COLO 829 cells [7] | average percent of dead MDA-MB-231 cells [8] | other results
Cc1nnc(COC(=O)c2ccc3noc(-c4ccccc4)c3c2)o1 [Inhibitor No. 8, (5-methyl-1 ,3,4-oxadiazol-2-yl)methyl 3-phenyl-2,1-benzoxazole-5-carboxylate] | Less efficient reduction of lactate overflow | no in vitro PFK-M inhibition could be detected |  |  |  |  | 
CNC(=O)c1nc(CN2CCc3onc(-c4cccc(F)c4)c3C2)no1 [Inhibitor No. 11, 3-{[3-(3-fluorophenyl)-6,7-dihydroisoxazolo[4,5-c]pyridin-5(4H)-yl]methyl}-N-methyl-1,2,4-oxadiazole-5-carboxamide] | Less efficient reduction of lactate overflow | no in vitro PFK-M inhibition could be detected |  |  |  |  | 
CNC(=O)c1nc(CN2CCc3onc(-c4ccccc4F)c3C2)no1 [Inhibitor No. 13, 3-{[3-(2-fluorophenyl)-6,7-dihydroisoxazolo[4,5-c]pyridin-5(4H)-yl]methyl}-N-methyl-1,2,4-oxadiazole-5-carboxamide] | Less efficient reduction of lactate overflow | no in vitro PFK-M inhibition could be detected |  |  |  |  | 
Cc1ccc(-c2cccc(-c3ccn(Cc4nnc(C)o4)n3)c2)nn1 [Inhibitor No. 14] | Less efficient reduction of lactate overflow | no in vitro PFK-M inhibition could be detected |  |  |  |  | 
CS(=O)(=O)Nc1nnc(NC(=O)c2ccc3[nH]c4c(c3c2)CCCC4)s1 [Inhibitor No. 23, N-[5-(methanesulfonamido)-1,3,4-thiadiazol-2-yl]-6,7,8,9-tetrahydro-5H-carbazole-3-carboxamide] |  |  | strong inhibition | Slightly weaker inhibition | 9,23±0,6% | 2,98±0,2% | period of strong inhibition of lactate generation, MDA-MB-231 ([3]; later on lactate generation re-appeared): 42 h; period of strong inhibition of lactate generation, Caco-2 ([4]; 20-80 µM, later the inhibitory effect was lost): 36 h; lactate generation by Caco-2 cells ([4]; different concentrations (20-80 µM)): strong inhibition of lactate generation; concentration at which comprehensive inhibition of lactate formation was detected, COLO 829 ([5]; sequential re-insertion at 24-hour intervals): ≥ 20 µM; average percentages of dead cells, Caco-2, sequential re-insertion [6, 9]: 4,05±0,54%; average percent of dead cells, Caco-2 ([6]; single addition, average over control and different concentrations of inhibitor): 3,35±0,08%; average percentages of dead cells, COLO 829, sequential re-insertion [7, 9]: 2,40±0,09%; average percentages of dead cells, MDA-MB-231, sequential re-insertion [8, 9]: 2,20±0,15%
O=C(Nc1nnc(-c2ccno2)o1)[C@H]1COc2ccccc2O1 [Inhibitor No. 31, (2R)-N-(5-isoxazol-5-yl-1,3,4-oxadiazol-2-yl)-2,3-dihydro-1,4-benzodioxine-2-carboxamide] |  |  | dose dependent inhibition of lactate excretion | some inhibition | 8,26±0,38% | 6,87±0,44% | 
